Entries after “also recorded” stand apart in the source; their conditions may differ. Where two headings read alike, the source gives them in different places.
What was measured:
VGSC = assay: Patch-clamp recording of VGSC current, cell type not specified or several cell types (summary statements); type: cell-based, human
Nav1.5 = assay: Patch-clamp (voltage clamp) recording of VGSC current in HEK cells stably expressing Nav1.5
[1] = tested on: Nav1.5 in T1R3-silenced HEK cells; assay: VGSC current in HEK Nav1.5 cells with silenced T1R3; type: cell-based, human
Source text: The miRNAs Oligo (Thermofisher) used for silencing were annealed to form double-stranded DNA, which was then linked to the miR RNAi Expression Vector using T4 DNA ligase to create the knockdown vector. Specifically, the procedure followed the miR RNAi Expression Vector Kit manual (BLOCK-i™ Pol II miR RNAi Expression Vector Kit with EmGFP (Catalog number: K493600)).
Since Aβ25-35 peptide produced similar effects (enhancing VGSC activity, lowering the excitability threshold) as glutamine, it was considered that Aβ25-35 peptide might also act on T1R2/T1R3 receptors like glutamine. Therefore, in this implementation example, we used HEK-Nav1.5 cells with silenced T1R3 and compared the effect of Aβ25-35 peptide on VGSC with that in control HEK-Nav1.5 cells.
To strengthen these findings, we conducted similar experiments using HEK Nav1.5 cells in which T1R3 expression was silenced (FIG. 22). We measured VGSC currents in T1R3-silenced HEK Nav1.5 cells, applying stimuli every 8 seconds.

[2] = tested on: VGSC of SH-SY5Y cells (Nav1.7, Nav1.2, Nav1.3); assay: Patch-clamp recording of VGSC current in differentiated SH-SY5Y cells; type: cell-based, human; settings: for IC50: read-out: IC50 (VGSC inhibition)
Source text: Furthermore, the inventors focused on the relationship between taste receptors, particularly the sweet or umami receptors containing the T1R3 subunit, which are widely expressed in the brain and nervous system, including the hippocampus and cortex. They used human neuroblastoma cells (SH-SY5Y) that functionally express Nav1.2, Nav1.3, and Nav1.7 (as reported in non-patent literature 8), as well as HEK cells stably expressing Nav1.5 (with endogenous expression of T1R1, T1R2, and T1R3). They observed the effects of taste stimuli on sodium channel activation. By reducing the expression of T1R1 and T1R3 genes using silencing vectors, they confirmed that the effects on sodium channel currents induced by taste stimuli act through taste receptor GPCRs.
The SH-SY5Y cell culture medium was prepared by mixing DMEM (Sigma-Aldrich) and F-12 (Sigma-Aldrich) in equal proportions. To induce neuronal-like differentiation, the medium contained 1% FBS (BioWest), 5% 40 mM L-Glutamine (Fuji Film), and 1% MEM non-essential amino acids (Wako Pure Chemical Industries). During differentiation, SH-SY5Y cells were cultured for at least 5 days with the addition of 10 μM/ml retinoic acid (Fuji Film). In this document, “SH-SY5Y cells” refer to the SH-SY5Y cell line differentiated into neuronal-like cells.

[3] = tested on: voltage-dependent potassium channel current of SH-SY5Y cells; assay: Voltage clamp recording of outward potassium current in SH-SY5Y cells; type: cell-based, human; settings: 2 mM
Source text: The inward current represents the transient peak observed immediately after stimulation, while the outward current measures the average value during the last 50 ms of rectangular pulse stimulation.

Kv1.2 = assay: Patch-clamp recording of Kv1.2 potassium current in HEK cells expressing Kv1.2; type: cell-based, human
Method: The effects of Aβ peptides or umami substances on sustained potassium currents (VGKC) in cardiac myocytes can be studied using HEK cells expressing VGKC (such as Kv1.2, Kv3.2, Kv3.3) as well as SH-SY5Y cells expressing endogenous T1R GPCRs. For instance, as shown in the implementation example in (FIG. 36B), Aβ peptides were applied to VGKC-expressing human cultured cells, and VGKC currents were recorded using ramp-like or rectangular voltage waveforms via the patch-clamp technique. This allowed measurement of the changes (inhibition) in VGKC currents caused by Aβ peptides. Similar inhibition studies on VGKC can be conducted using umami substance L-glutamate sodium (MSG) (FIG. 36A).
As shown in (FIG. 37), Aβ1-42 peptide, unlike Aβ25-35 targeting T1R3, interacts with T1R1 and inhibits VGSC currents (FIGS. 37D, E).

Structure (SMILES): COc1ccc(OC(C)C(=O)O)cc1 (stereo not drawn) [Lactisole]
- Effects on VGSCs (VGSC): Inhibition of VGSCs
- Effect on VGSC enhanced by Aβ25-35 (Nav1.5; 1-1.5 mM): inhibits the enhancing effect of Aβ25-35 on VGSC; also recorded: recovered to the size of VGSC recorded in the control

Structure (SMILES): CC(=O)O[C@H]1C(=O)[C@@]2(C)[C@H]([C@H](OC(=O)c3ccccc3)[C@]3(O)C[C@H](OC(=O)[C@H](O)[C@@H](NC(=O)c4ccccc4)c4ccccc4)C(C)=C1C3(C)C)[C@]1(OC(C)=O)CO[C@@H]1C[C@@H]2O [Taxol]
- Effects on VGSCs (VGSC): Enhances VGSC
- Effect on VGSC current (Nav1.5; 0.4 μM to […]): VGSC enhancement was observed
- Effect on VGSC current (Nav1.5; 0.4 μM to […], listed as Paclitaxel (Taxol)): enhances HEK Nav1.5 cell VGSC

Structure (SMILES): C/C1=C/C(=O)O[C@@H]2C[C@@H](CC[C@H](C)/C=C\C=C\CC1)O[C@@](O)([C@@H]1CSC(=O)N1)C2 [Latrunculin A]
- Effects on VGSCs (VGSC): reduces VGSC
- Shift of steady-state inactivation (S-S) curve of VGSC (VGSC): shifting the S-S curve toward hyperpolarization
- Effect on VGSC current (VGSC; 12.6 μM): shifted the VGSC current toward hyperpolarization and inhibited it
- Effect on VGSC current (VGSC; 12.6 μM, listed as LatA): significantly inhibits VGSC current

Structure (SMILES): CC(C)(Cc1ccc2ccccc2c1)NC[C@@H](O)COc1cccc(Cl)c1C#N [NPS-2143]
- Effects on VGSCs (VGSC): inhibited human VGSC; also recorded: Inhibition of VGSCs
- Required concentration for VGSC inhibition (VGSC; HEK Nav1.5 and SH-SY5Y): 5 µM
- Effect on VGSC in T1R3-silenced cells [1]: no VGSC inhibitory effect was observed
- Effect on VGSC current (Nav1.5; 5 μM): Inhibitory effect; also recorded: slowly inhibited
- Effect on leak (baseline) current (Nav1.5; when VGSC inhibition nearly complete): non-selective leak currents

Structure (SMILES): NCCCC[C@H](N)C(=O)O [lysine]
- Effect on VGSC inactivation (VGSC): delay VGSC inactivation

Structure (SMILES): COc1cc2c(c(OC)c1OC)-c1ccc(OC)c(=O)cc1[C@@H](NC(C)=O)CC2 [Colchicine]
- Effects on VGSCs (VGSC): Enhances VGSC
- VGSC current amplitude (VGSC; 2.25 μM, at −40 mV): nearly doubled

Structure (SMILES): NCCCC(=O)O [GABA, γ-aminobutyric acid]
- Effect on VGSC current enhanced by Aβ42/40 (AD-D) (Nav1.5; applied after Aβ42/40 (AD-D)): no effects similar to β-alanine were observed

Structure (SMILES): CC(Oc1ccc(Cl)cc1Cl)C(=O)O (stereo not drawn) [dichlorprop, 2-(2,4-dichlorophenoxy) propanoic acid]
- Rank among sweet taste inhibitors in inhibiting Na+ channels (VGSC; dichlorprop>>clofibrate>lactisole): most effective inhibitor of sodium channels at the lowest concentration; also recorded: most potent
- Effects on VGSCs (VGSC; listed as DichrolProp): Inhibition of VGSCs
- IC50 ([2]; prepulse −80 mV): 17.3 µM
- IC50 ([2]; prepulse/holding voltage −60 mV): 9 µM
- Effect on VGSC current amplitude (Nav1.5): reduced the amplitude of VGSC current
- Vh of steady-state inactivation curve (Nav1.5; 500 μM): shifted to a more negative potential
- Slope of steady-state inactivation curve (Nav1.5; Control vs 300 and 500 μM, t-test): no significant difference
- Effect on S-S curve of VGSC in the presence of Taxol (Nav1.5; in the presence of Taxol): shifted the S-S curve of VGSC in the hyperpolarizing direction

Structure (SMILES): Brc1c(Br)c(Br)c2[nH]nnc2c1Br [TBB, 4,5,6,7-tetrabromobenzotriazole]
- Shift of steady-state inactivation (S-S) curve of VGSC (VGSC): shifted to the hyperpolarizing direction even at control recordings.
- Effect on VGSC current amplitude (Nav1.5): reduced the amplitude of VGSC current
- Shift of steady-state inactivation (S-S) curve of VGSC (Nav1.5): shifted gradually to the left; also recorded: significantly shifts in the hyperpolarizing direction
- Suppression of VGSC current (Nav1.5; 10 μM, prepulse −80 mV, test pulse −20 mV): almost completely suppressed
- Suppression of VGSC current (Nav1.5; 10 μM, prepulse −100 mV): about half suppressed
- VGSC current unaffected (Nav1.5; 10 μM, prepulse −120 mV): more than 80%
- VGSC current inhibition (Nav1.5; minimum concentration (printed 30 μM), preceding pulse −80 mV): nearly complete VGSC current inhibition
- Suppression of VGSC current (Nav1.5; prepulse −120 mV, at the used TBB concentration): about 50%
- IC50 (Nav1.5; read-out: IC50 from difference in Vh of steady-state inactivation curve (Hill equation)): 12.9 µM
- IC50 (Nav1.5; read-out: IC50 of inhibition of VGSC current (INa, step −100 mV to −20 mV, Hill plot), prepulse −100 mV): 15.8 µM

Structure (SMILES): OC[C@H]1OC(O)[C@H](O)[C@@H](O)[C@@H]1O (stereo partly drawn) [Glucose]
- Effects on VGSCs (VGSC; <10 mM): Enhancement of VGSC
- Effects on VGSCs (VGSC; >20 mM): Inhibition of VGSCs

Structure (SMILES): OC[C@H]1O[C@@](CO)(O[C@H]2O[C@H](CO)[C@@H](O)[C@H](O)[C@H]2O)[C@@H](O)[C@@H]1O [Sucrose]
- Effects on VGSCs (VGSC): Inhibition of VGSCs

Structure (SMILES): N[C@@H](CO)C(=O)O [L-Serin, L-serine]
- Effects on VGSCs (VGSC): Enhancement of VGSC
- Effect on VGSC current (VGSC; 2.5 mM): Enhances VGSC currentat 2.5 mM

Structure (SMILES): N[C@@H](CC(=O)O)C(=O)O [aspartic acid]
- Effect on VGSC inactivation (VGSC): delay VGSC inactivation

Structure (SMILES): Nc1nc2c(ncn2[C@@H]2O[C@H](COP(=O)(O)O)[C@@H](O)[C@H]2O)c(=O)[nH]1 [GMP, guanosine 5′-monophosphate]
- Effects on VGSCs (VGSC): enhances VGSC; also recorded: Enhancement of VGSC
- Effect on VGSC (VGSC; 1 mM): 1 mM GMP, much like L-Gln, primarily enhances VGSC without altering
- Effect on outward potassium current [3]: peak outward potassium current decreases; also recorded: reduced outward potassium currents
- Leftward shift in the I-V curve [2]: approximately 10 mV
- Effect on VGSC current ([2]; 2 mM): slight increase in VGSC currents
- Steady-state inactivation curve ([2]; 2 mM): No change; also recorded: No changes were observed

Structure (SMILES): NC(=O)CC[C@H](N)C(=O)O [L-Gln, L-glutamine]
- Effects on VGSCs (VGSC): Enhancement of VGSC; also recorded: Delay in VGSC inactivation
- Increase in VGSC current (VGSC; 0.5-1 mM, SH-SY5Y (n=8) and HEK-Nav1.5 (n=4)): 10-20%
- Effect on VGSC current (VGSC; concentrations higher than 1 mM): 500 uM and 1 mM but not at higher
- Effect on VGSC current (VGSC; concentrations higher than 1 mM, listed as glutamine): No further enhancement
- Effect on voltage gated K+ channel (Kv1.2) current (Kv1.2): Inhibition of Voltage gated
- Effect on VGSC inward current ([2]; 500 μM): enhancement of transient downward VGSC current; also recorded: amplification of VGSC inward current
